The target of the assay is G-protein coupled receptor 52 (Homo sapiens, UniProt Q9Y2T5). In words: Agonist activity at human GPR52 expressed in CHO cells assessed as cAMP production after 30 mins by Alphascreen assay. A general note: Cyclic AMP is a second messenger, typically raised through Gs and lowered through Gi signalling.
Chain of G-protein coupled receptor 52 (Q9Y2T5 whole entry): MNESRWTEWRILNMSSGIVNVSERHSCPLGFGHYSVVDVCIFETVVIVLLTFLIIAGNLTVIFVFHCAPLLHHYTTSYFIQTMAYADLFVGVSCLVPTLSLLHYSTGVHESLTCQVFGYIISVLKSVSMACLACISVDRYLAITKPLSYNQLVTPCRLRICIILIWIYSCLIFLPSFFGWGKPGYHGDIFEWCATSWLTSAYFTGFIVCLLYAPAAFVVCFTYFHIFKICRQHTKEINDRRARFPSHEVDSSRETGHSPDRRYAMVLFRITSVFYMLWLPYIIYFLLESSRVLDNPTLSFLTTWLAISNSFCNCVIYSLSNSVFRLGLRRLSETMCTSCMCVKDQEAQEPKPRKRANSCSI

As to `COc1ccc(-c2ccnc(NCCc3ccc(OC)c(OC)c3C)n2)cc1`, the concentration giving a half-maximal response (EC50) (commonly the concentration at which the effect is half-maximal) was greater than 10 µM.

Source of the values: BindingDB's records for doi:10.1021/jm5002919 (Takeda Pharmaceutical, 2014).
